# Patent US8809001B2, “High throughput assays for inhibitors and activators of PAQR receptors” (University of Florida Research Foundation, Inc., priority 2007, dated 2014)
# pEC50: −log10 of the molar value. Read-outs that look alike come from different tables or passages of the source.
# What was measured:
# [1] = target: T1, Ste2p GPCR (Saccharomyces cerevisiae, UniProt D6VTK4); assay: FET3-lacZ reporter in yeast overexpressing Ste2p GPCR; type: cell-based; conditions: 1 μM; overexpressed Ste2p, wild type cells (mat a), 2% galactose
# T1 construct: expressed in transfected cells; host or cells: Saccharomyces cerevisiae wild type (mat a), pRS316-based GAL1-STE2 plasmid
# T1 sequence (D6VTK4 1-431): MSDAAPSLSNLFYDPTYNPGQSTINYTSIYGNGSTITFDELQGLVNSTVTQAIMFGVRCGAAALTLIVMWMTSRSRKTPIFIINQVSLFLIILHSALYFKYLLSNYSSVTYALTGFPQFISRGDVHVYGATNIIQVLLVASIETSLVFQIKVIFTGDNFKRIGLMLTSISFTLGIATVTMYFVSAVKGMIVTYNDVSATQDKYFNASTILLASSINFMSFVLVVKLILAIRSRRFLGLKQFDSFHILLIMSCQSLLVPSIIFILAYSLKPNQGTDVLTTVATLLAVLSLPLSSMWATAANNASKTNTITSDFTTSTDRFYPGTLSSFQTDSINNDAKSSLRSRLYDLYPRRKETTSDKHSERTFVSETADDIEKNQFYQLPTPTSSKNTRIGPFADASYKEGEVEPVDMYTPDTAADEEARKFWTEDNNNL
# Excerpt: (§1) Plasmids and primers. Human PAQRs were cloned into various vectors by PCR from commercially/publically available cDNAs. PAQRs were cloned into the pYES260 (Melcher, 2000), pRS316 (Liu et al., 1992) or pGREG536 (Jansen et al., 2005) expression vectors using gap repair. The pJK90 plasmid containing a Dual Topology Reporter (DTR)-tagged OST4 gene driven by the constitutive TPI1 promoter was kindly provided by Dr. Gunnar von Heijne (Stockholm University) (Kim et al., 2003). The OST4 open reading frame in pJK90 was replaced with the PAQR6 and mPRα open reading frames by gap repair. Primers for all cloning reactions are listed herein. Proteins expressed in pYES260 have an N-terminal 6×-histidine tag followed by a TEV protease cleavage site. Proteins expressed in pGREG536 have an N-terminal 7×-HA tag. Proteins expressed in the pRS316 vector are untagged. The pYES260, pRS316 and pGREG536 vectors allow for galactose-inducible expression via the GAL1 promoter. […] The FET3-lacZ plasmid was previously described (Kupchak et al., 2007). […]
# (§2) Assays and growth conditions. […] Cells were allowed to grow to mid-log phase at which time the activity of the FET3 gene was monitored using a FET3-lacZ promoter-reporter construct. lacZ activities are presented as a percentage of activity seen in untreated cells expressing the appropriate empty expression vector control. […]
# [2] = target: T2, mPRα (Homo sapiens, UniProt Q86WK9); assay: cell-based
# T2 construct: Full length and truncated mPRγ and mPRα were expressed in wild type cells grown in 2% galactose from the pGREG536 vector; expressed in transfected cells; host or cells: Saccharomyces cerevisiae (BY4742 wild type; also gpa mutants), GAL1-driven plasmids (TPI1 promoter in pJK90)
# T2 sequence (Q86WK9 1-346): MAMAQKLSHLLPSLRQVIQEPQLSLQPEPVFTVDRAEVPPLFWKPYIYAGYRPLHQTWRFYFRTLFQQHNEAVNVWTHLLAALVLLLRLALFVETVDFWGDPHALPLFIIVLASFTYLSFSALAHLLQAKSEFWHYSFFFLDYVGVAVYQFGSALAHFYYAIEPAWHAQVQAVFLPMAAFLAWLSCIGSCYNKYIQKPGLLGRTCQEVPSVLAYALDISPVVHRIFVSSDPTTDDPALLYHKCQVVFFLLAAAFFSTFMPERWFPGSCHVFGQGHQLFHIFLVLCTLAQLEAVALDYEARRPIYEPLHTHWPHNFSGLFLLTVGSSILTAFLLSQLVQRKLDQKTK
# Excerpt: Plasmids and primers. Human PAQRs were cloned into various vectors by PCR from commercially/publically available cDNAs. […] The OST4 open reading frame in pJK90 was replaced with the PAQR6 and mPRα open reading frames by gap repair. Primers for all cloning reactions are listed herein. Proteins expressed in pYES260 have an N-terminal 6×-histidine tag followed by a TEV protease cleavage site. Proteins expressed in pGREG536 have an N-terminal 7×-HA tag. Proteins expressed in the pRS316 vector are untagged. The pYES260, pRS316 and pGREG536 vectors allow for galactose-inducible expression via the GAL1 promoter. […] A pRS316-based plasmid containing the STE2 gene under the control of the GAL1 promoter (Feng et al., 2000) was kindly provided by Dr. Nicholas G. Davis (Wayne State University).
# Assays and growth conditions. Strains were maintained using standard protocol and grown in synthetic defined (SD) media with the appropriate amino acids to match the auxotrophies of the individual strains. […] In brief, overnights of cells grown in SD-glucose media were re-inoculated into iron-deficient LIM to induce the expression of FET3. […] All ligands were added to the growth medium upon re-inoculation into LIM. For experiments in which steroids were added as ligands, steroids were added from ethanol stocks and “untreated” controls are actually treated with an equal volume of ethanol to control for vehicle effects. […] All experiments were performed at least three times and a representative experiment is shown. EC50 values were obtained using the web-based BioDataFit software using sigmoidal curve-fitting. (web site changbioscience.com/stat/ec50.html)
# [3] = target: T3, PAQR6 (Homo sapiens, UniProt Q6TCH4); assay: FET3-lacZ reporter repression in yeast expressing PAQR6; type: cell-based; conditions: FET3-lacZ
# T3 construct: expressed in transfected cells; host or cells: Saccharomyces cerevisiae BY4742, GAL1-driven pYES260 plasmid
# T3 sequence (Q6TCH4 1-344): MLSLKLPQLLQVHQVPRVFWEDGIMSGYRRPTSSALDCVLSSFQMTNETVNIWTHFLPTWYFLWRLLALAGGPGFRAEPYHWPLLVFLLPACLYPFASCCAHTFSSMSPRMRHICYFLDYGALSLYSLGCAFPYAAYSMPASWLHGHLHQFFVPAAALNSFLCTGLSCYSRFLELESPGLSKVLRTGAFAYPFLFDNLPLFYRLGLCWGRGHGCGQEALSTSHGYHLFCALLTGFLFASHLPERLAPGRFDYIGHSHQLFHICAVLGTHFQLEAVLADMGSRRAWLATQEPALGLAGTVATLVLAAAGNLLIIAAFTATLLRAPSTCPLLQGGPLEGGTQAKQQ
# Excerpt: as §1, §2
# [4] = target: T4, PAQR9 (Homo sapiens, UniProt Q6ZVX9); assay: FET3-lacZ reporter repression in yeast expressing PAQR9; type: cell-based; conditions: FET3-lacZ
# T4 construct: expressed in transfected cells; host or cells: Saccharomyces cerevisiae BY4742, GAL1-driven pYES260 plasmid
# T4 sequence (Q6ZVX9 1-377): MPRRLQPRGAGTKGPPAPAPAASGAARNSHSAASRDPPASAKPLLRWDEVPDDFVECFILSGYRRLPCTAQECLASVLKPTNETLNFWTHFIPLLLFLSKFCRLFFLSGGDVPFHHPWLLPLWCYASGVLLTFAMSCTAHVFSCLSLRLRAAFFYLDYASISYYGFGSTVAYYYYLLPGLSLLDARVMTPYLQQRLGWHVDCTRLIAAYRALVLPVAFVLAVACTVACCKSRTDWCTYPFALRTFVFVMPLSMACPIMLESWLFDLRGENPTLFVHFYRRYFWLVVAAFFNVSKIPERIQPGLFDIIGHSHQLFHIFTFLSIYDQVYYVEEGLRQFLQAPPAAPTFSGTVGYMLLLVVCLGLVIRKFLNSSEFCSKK
# Excerpt: (§3) Plasmids and primers. Human PAQRs were cloned into various vectors by PCR from commercially/publically available cDNAs. PAQRs were cloned into the pYES260 (Melcher, 2000), pRS316 (Liu et al., 1992) or pGREG536 (Jansen et al., 2005) expression vectors using gap repair. The pJK90 plasmid containing a Dual Topology Reporter (DTR)-tagged OST4 gene driven by the constitutive TPI1 promoter was kindly provided by Dr. Gunnar von Heijne (Stockholm University) (Kim et al., 2003). The OST4 open reading frame in pJK90 was replaced with the PAQR6 and mPRα open reading frames by gap repair. Primers for all cloning reactions are listed herein. Proteins expressed in pYES260 have an N-terminal 6×-histidine tag followed by a TEV protease cleavage site. Proteins expressed in pGREG536 have an N-terminal 7×-HA tag. Proteins expressed in the pRS316 vector are untagged. The pYES260, pRS316 and pGREG536 vectors allow for galactose-inducible expression via the GAL1 promoter. […] The FET3-lacZ plasmid was previously described (Kupchak et al., 2007). Plasmids derived from pADM4 carrying hyperactive alleles of Gpa1p (Gpa1p^Q323L) (Slessareva et al., 2006) and Gpa2p (Gpa2p^Q300L) (Harashima et al., 2002) driven by the ADH1 promoter were kindly provided by Dr. Henrik Dohlman (UNC Chapel Hill). A pRS316-based plasmid containing the STE2 gene under the control of the GAL1 promoter (Feng et al., 2000) was kindly provided by Dr. Nicholas G. Davis (Wayne State University).
# Assays and growth conditions. Strains were maintained using standard protocol and grown in synthetic defined (SD) media with the appropriate amino acids to match the auxotrophies of the individual strains. Low Iron Medium (LIM) contains EDTA to limit iron-bioavailability and its composition has been previously described (Kupchak et al., 2007). […] Cells were allowed to grow to mid-log phase at which time the activity of the FET3 gene was monitored using a FET3-lacZ promoter-reporter construct. lacZ activities are presented as a percentage of activity seen in untreated cells expressing the appropriate empty expression vector control. […]
# [5] = target: T5, mPRγ (Homo sapiens, UniProt Q9NXK6); assay: FET3-lacZ reporter repression in yeast expressing mPRγ; type: cell-based
# T5 construct: Full length and truncated mPRγ and mPRα were expressed in wild type cells grown in 2% galactose from the pGREG536 vector; expressed in transfected cells; host or cells: Saccharomyces cerevisiae (BY4742 wild type; also gpa mutants), GAL1-driven plasmids
# T5 sequence (Q9NXK6 1-330): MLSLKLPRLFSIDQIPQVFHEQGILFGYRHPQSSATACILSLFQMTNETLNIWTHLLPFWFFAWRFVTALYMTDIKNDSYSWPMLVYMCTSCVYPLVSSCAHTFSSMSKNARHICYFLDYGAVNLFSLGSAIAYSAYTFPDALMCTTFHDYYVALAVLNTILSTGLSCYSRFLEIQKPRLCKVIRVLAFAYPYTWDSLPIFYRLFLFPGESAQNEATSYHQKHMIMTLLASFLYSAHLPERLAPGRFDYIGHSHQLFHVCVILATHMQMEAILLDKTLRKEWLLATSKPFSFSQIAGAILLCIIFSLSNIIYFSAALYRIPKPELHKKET
# Excerpt: as §3
# Assays and growth conditions. Strains were maintained using standard protocol and grown in synthetic defined (SD) media with the appropriate amino acids to match the auxotrophies of the individual strains. Low Iron Medium (LIM) contains EDTA to limit iron-bioavailability and its composition has been previously described (Kupchak et al., 2007). […] In brief, overnights of cells grown in SD-glucose media were re-inoculated into iron-deficient LIM to induce the expression of FET3. 2% galactose was used as a carbon source to induce full expression of PAQR genes driven by the GAL1 promoter, while 0.05% galactose/1.95% raffinose was used for reduced PAQR expression. All ligands were added to the growth medium upon re-inoculation into LIM. For experiments in which steroids were added as ligands, steroids were added from ethanol stocks and “untreated” controls are actually treated with an equal volume of ethanol to control for vehicle effects. Cells were allowed to grow to mid-log phase at which time the activity of the FET3 gene was monitored using a FET3-lacZ promoter-reporter construct. lacZ activities are presented as a percentage of activity seen in untreated cells expressing the appropriate empty expression vector control. For individual experiments, each data point has been done in triplicate and the error bars represent +/−1 standard deviation. All experiments were performed at least three times and a representative experiment is shown. EC50 values were obtained using the web-based BioDataFit software using sigmoidal curve-fitting. (web site changbioscience.com/stat/ec50.html)
# [6] = test system: pFET3-397; assay: pFET3-397 lacZ reporter in yeast with AMPK activator in the growth medium; type: cell-based, Saccharomyces cerevisiae; conditions: 500 μM in the growth medium
# Experimental: Most experiments were performed in a defined EDTA-containing medium known as low iron medium (LIM) (Eide et al., 1992). Iron-deficiency and repletion were generated by adding either 1 μM or 1 mM of FeCl3, respectively, to LIM. 2% galactose was used to fully induce GAL1-driven gene overexpression. Total sugar concentration was maintained at 2% by the addition of raffinose in those experiments in which the % galactose was modulated to decrease expression levels. Cells were allowed to grow to mid-log phase in LIM and β-galactosidase assays on permeabilized yeast were performed as previously described (Lyons et al., 2000). Ferroxidase activity assays on intact yeast cells followed published procedures using ferrozine as a colorimetric indicator of iron oxidation state (De Silva et al., 1995). All experiments include triplicate data points and each experiment was performed a minimum of three times. Representative experiments are shown. All error bars represent ±1 standard deviation within a single experiment. Because of the simplicity of β-galactosidase assays and the fact that Izh2p overexpression similarly affects both lacZ and ferroxidase activity, lacZ assays are shown for most experiments. For some strains with significant growth defects, such as snf1Δ, lacZ assays were not performed because of the low efficiency of co-transformation of lacZ reporter and overexpression plasmids. […]
# [7] = FET3-lacZ, steroids up to 10 μM
molecule,measurement,setting,value
α-factor,effect on FET3,[1],no effect
CC(=O)[C@@]1(O)CC[C@H]2[C@@H]3CCC4=CC(=O)CC[C@]4(C)[C@H]3CC[C@@]21C [17α-hydroxyprogesterone],agonist activity on mPRα (in words),[2]; [7],effective activator
same,"activation of mPRα, alterations at the 17 and 21 positions of the pregnane ring (in words)","[2]; further analysis of mPRα (pRS316 plasmid, 2% galactose per FIG. 7C)",similarly effective activators
same,pEC50,"[2]; mPRα column of Table 4, ligand alone, read-out: EC50",7.99
same,pEC50,[2]; read-out: EC50 for the activation of mPRα,~8.00
same,activation of PAQR6 (in words),[3],can be activated
same,activation of PAQR9 (in words),[4],can be activated
same,agonist activity on mPRγ (in words),[5]; [7],effective activator
same,pEC50,"[5]; mPRγ column of Table 4, ligand alone",8.03
NC(=O)c1ncn([C@@H]2O[C@H](CO)[C@@H](O)[C@H]2O)c1N [AICAR],effect on pFET3-397 activity,[6],small but reproducible decrease
